Assay results as given in patent US20220401408A1, “COMPOSITIONS AND METHODS FOR RESCUING RETINAL AND CHOROIDAL STRUCTURE AND FUNCTION” (AUCKLAND UNISERVICES LIMITED, priority 2019, published 2022).
Entries after “also recorded” stand apart in the source; their conditions may differ.

Assays:
light damaged rats [1] = assay: Electroretinogram (ERG) in retina light damage model of dry AMD; assay type: in vivo, Sprague Dawley (SD) rats; settings: for mixed a-wave amplitude vs light damaged control group: 1 week post treatment
Description: (§1) Retina Light Damage Model of Dry Age-Related Macular Degeneration—The intense light damage model was prepared and carried out as described in previous studies. Mat Nor N, Guo C X, Rupenthal ID, Chen Y S, Green C R, Acosta M L. Sustained Connexin43 Mimetic Peptide Release From Loaded Nanoparticles Reduces Retinal and Choroidal Photodamage. Invest Ophthalmol Vis Sci. 2018; 59:3682-93; Guo C X, Mat Nor M N, Danesh-Meyer H V, Vessey K A, Fletcher E L, O'Carroll S J, et al. Connexin43 Mimetic Peptide Improves Retinal Function and Reduces Inflammation in a Light-Damaged Albino Rat Model. Invest Ophthalmol Vis Sci. 2016; 57:3961-73; Guo C X, Tran H, Green C R, Danesh-Meyer H V, Acosta M L. Gap junction proteins in the light-damaged albino rat. Mol Vis. 2014; 20:670-82; Noell W K, Walker V S, Kang B S, Berman S. Retinal damage by light in rats. Invest Ophthalmol. 1966; 5:450-73. The light damage rat model was selected as it allows direct comparison with this and other drugs. Kim Y, Griffin J M, Nor M N M, Zhang J, Freestone P S, Danesh-Meyer H V, et al. Tonabersat Prevents Inflammatory Damage in the Central Nervous System by Blocking Connexin43 Hemichannels. Neurotherapeutics. 2017; 14:1148-65; Mat Nor N, Guo C X, Rupenthal ID, Chen Y S, Green C R, Acosta M L, supra; Guo C X, Mat Nor M N, Danesh-Meyer H V, Vessey K A, Fletcher E L, O'Carroll S J, et al., supra. […] All experimental procedures were approved by the University of Auckland Animal Ethics Committee, approval No. 001462 and comply with the Association for Research in Vision and Ophthalmology (ARVO) statement for the use of animals in eye research. Six to eight-week old albino Sprague Dawley (SD) rats (200-250 g; male or female) were used. Adult SD rats were exposed to continuous bright light for 24 hours, consistently starting at 9:00 am to minimize possible time-of-day variability. Light exposure was to two animals at a time to prevent rats from taking cover using each other as a shield. The LD protocol and intervention was repeated until the number of individuals for each dose group was obtained (n=7 per group). The light luminance was 2700 lux, generated using fluorescent lamps (Philips Master TLD 18W/965; Koninklijke Philips Electronics N.V., China) directly above the animal cages. The lamps were cool and emitted broadband light, from 380 to 760 nm wavelength, with the average intensity at the top of the cage being 120 W/m2. Animals were free to move within the cage with access to food and water ad libidum. Baseline electroretinography (ERG) readings and optical coherence tomography (OCT) images were collected prior to the light damage. After light exposure, animals were returned to normal light-dark cycle conditions (12 hours light, 174 lux and 12 hours darkness, <62 lux) for 24 hours, 1 week or 2 weeks (and for one group 3 months).
(§2) Tonabersat treatment of light damaged rats—LD rats were randomly assigned to low, middle or high dose of tonabersat (n=7 per group). The mixture of tonabersat in peanut butter was prepared fresh for each experiment. Three oral tonabersat doses were tested (n=7 per group) with follow up to 2 weeks post-injury, and the highest dose group then split with three animals taken for histological analysis, and four animals followed to 3 months post-injury. There was a ten-animal vehicle only control group. The group of rats that were kept for 3 months were maintained in separate cages for drug or vehicle-treated animals, but were kept under the same light conditions. Tonabersat was fed to animals in peanut butter at 0.26 mg/kg (on average 0.08 mg delivered, estimated circulating concentration 10 μM), 0.8 mg/kg (average of 0.24 mg delivered; 30 μM circulating) or 2.4 mg/kg (on average 0.72 mg delivered; 90 μM circulating) following consideration of previous unsuccessful human trial dosing levels. Silberstein S D. Tonabersat, a novel gap-junction modulator for the prevention of migraine. Cephalalgia. […]

light damaged rats [2] = assay: Optical coherence tomography (OCT) of retinal layers and choroid in light damage model; assay type: in vivo, Sprague Dawley (SD) rats
Description: as §1, §2

[3] = 2.4 mg/kg oral single dose, 3 months after light damage
[4] = 2.4 mg/kg oral, 3 months post treatment, p<0.001
[5] = all three oral doses, 24 hours, 1 week and 2 weeks post light damage

Compound: CC(=O)c1ccc2c(c1)[C@H](NC(=O)c1ccc(F)c(Cl)c1)[C@H](O)C(C)(C)O2 [tonabersat, N-[(3S,4S)-6-acetyl-3-hydroxy-2,2-dimethyl-3,4-dihydrochromen-4-yl]-3-chloro-4-fluorobenzamide]
- improvement in absolute amplitude of the b-wave (on average) (light damaged rats [1]; 0.26 mg/kg oral): 1000 µV
- mixed a-wave amplitude vs light damaged control group (light damaged rats [1]; 0.26 mg/kg oral single dose, p<0.01): significant improvements
- mixed b-wave function (light damaged rats [1]; 0.26 mg/kg oral, 24 hours after treatment): significant improvement
- improvement in absolute amplitude of the b-wave (on average) (light damaged rats [1]; 0.8 mg/kg oral): 1000 µV
- mixed a-wave amplitude vs light damaged control group (light damaged rats [1]; 0.8 mg/kg oral single dose, p<0.01): significant improvements
- mixed b-wave function (light damaged rats [1]; 0.8 mg/kg oral, 24 hours after treatment): significant improvement
- improvement in absolute amplitude of the b-wave (on average) (light damaged rats [1]; 2.4 mg/kg oral): 1200 µV
- mixed b-wave function, significant improvement (light damaged rats [1]; 2.4 mg/kg oral (high dose), 24 hours after treatment): not seen
- mixed a-wave amplitude vs light damaged control group (light damaged rats [1]; 2.4 mg/kg oral single dose, intensities 0.1-2.1 log cd·s/m2, p<0.001): significant improvements
- a-wave improvement in photoreceptor function compared with vehicle treated controls (light damaged rats [1]; [3]): exceeding 400 V
- b-wave amplitude compared with vehicle treated controls (light damaged rats [1]; [3]): exceeded 800 V
- PII rod response compared to before light damage (light damaged rats [1]; 2.4 mg/kg oral, 3 months): no change; also recorded: matching the controls
- PIII rod response compared to before light damage (light damaged rats [1]; 2.4 mg/kg oral, 3 months): no change; also recorded: only slightly lower
- ERG, difference to vehicle control group (light damaged rats [1]; 24 hours post-light exposure, any of three oral doses (0.26, 0.8, 2.4 mg/kg)): no differences
- inner retinal function (mixed b-wave amplitude, all stimulus intensities) (light damaged rats [1]; all three oral doses, 1 and 2 weeks post-treatment): overt improvement
- improvement in ERG a-wave over vehicle treated light-injured group (light damaged rats [1]; all three oral doses, 2 weeks post-treatment, highest intensity, p<0.001): ~500 V
- mixed a-wave amplitude (light damaged rats [1]; all three oral doses, 2 weeks post-treatment, intensities 0.1-2.1 log cd·s/m2, p<0.001): significant recovery
- mixed a-wave and mixed b-wave functions (light damaged rats [1]; all tonabersat-treated animals, end of 2-week recovery period): within the range of variance for normal, undamaged albino rats
- ONL thickness compared to same animals prior to light damage (light damaged rats [2]; 2.4 mg/kg oral, 3 months): no difference
- choroidal thickness compared to same rats prior to light damage (light damaged rats [2]; 2.4 mg/kg oral, 3 months): no difference
- choroidal thickness compared to vehicle treatment group (light damaged rats [2]; [4]): significantly preserved
- retinal thickness compared to vehicle treatment group (light damaged rats [2]; [4]): significantly preserved
- INL thickness compared to same animals prior to light damage (light damaged rats [2]; 2.4 mg/kg oral, 3 months, p<0.05): slightly reduced thickness
- choroidal thickness (OCT) (light damaged rats [2]; [5]): significantly preserved
- retinal thickness (OCT) (light damaged rats [2]; [5]): significantly preserved
- thinning in the ONL or choroid (light damaged rats [2]; lowest and middle dose (0.26, 0.8 mg/kg), up to 2 weeks post light damage): some thinning at the lowest and middle dose, it was not significant
